Values joined by “and” are separate entries in the source; they are usually repeats but may differ in a detail not shown here. Equal entries are not always repeated. Toxic doses and inconclusive results are not listed.

This experiment concerns L1210 leukemia ip in BDF1 mice, survival T/C. The experiment is described as follows: NCI In Vivo Anticancer Drug Screen. Data for tumor model L1210 Leukemia (intraperitoneal) in B6D2F1 (BDF1) mice. The settings on record: higher = longer survival. The gist of the method:
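Read-out is survival time, reported as the treated-group measurement over the vehicle-control measurement.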

Where [1] appears, read: endpoint: mean survival time, dose: 100.0 mg/kg/injection, schedule: Q04DX002 (ip), vehicle: Klucel (hydroxypropylcellulose) (HPC).
Where [2] appears, read: endpoint: mean survival time, dose: 100.0 mg/kg/injection, schedule: Q04DX003 (ip), vehicle: saline with Tween-80.
Where [3] appears, read: endpoint: mean survival time, dose: 200.0 mg/kg/injection, schedule: Q04DX003 (ip), vehicle: saline with Tween-80.
Setting [4] is: endpoint: mean survival time, dose: 400.0 mg/kg/injection, schedule: Q04DX003 (ip), vehicle: saline with Tween-80.
Where [5] appears, read: endpoint: mean survival time, dose: 200.0 mg/kg/injection, schedule: Q04DX002 (ip), vehicle: Klucel (hydroxypropylcellulose) (HPC).
Where [6] appears, read: endpoint: mean survival time, dose: 400.0 mg/kg/injection, schedule: Q04DX002 (ip), vehicle: Klucel (hydroxypropylcellulose) (HPC).
Where [7] appears, read: endpoint: mean survival time, dose: 25.0 mg/kg/injection, schedule: Q04DX003 (ip), vehicle: saline with Tween-80.

As for `O=NN(CCCl)C(=O)Nc1ccc2c(c1)Cc1ccccc1-2`, the T/C runs as follows: (endpoint: mean survival time, dose: 10.0 mg/kg/injection, schedule: Q01DX009 (ip), vehicle: other) 156 % of control; (endpoint: mean survival time, dose: 20.0 mg/kg/injection, schedule: Q01DX009 (ip), vehicle: other) 167 % of control; (endpoint: mean survival time, dose: 40.0 mg/kg/injection, schedule: Q01DX009 (ip), vehicle: other) 113 % of control; (endpoint: mean survival time, dose: 44.0 mg/kg/injection, schedule: Q01DX009 (ip), vehicle: carboxymethylcellulose (CMC)) 164 % of control; (endpoint: mean survival time, dose: 66.0 mg/kg/injection, schedule: Q01DX009 (ip), vehicle: carboxymethylcellulose (CMC)) 208 % of control; (endpoint: mean survival time, dose: 100.0 mg/kg/injection, schedule: Q01DX009 (ip), vehicle: carboxymethylcellulose (CMC)) 175 % of control. The T/C was 96 % of control (endpoint: mean survival time, dose: 150.0 mg/kg/injection, schedule: Q01DX009 (ip), vehicle: carboxymethylcellulose (CMC)) and 102 % of control (endpoint: mean survival time, dose: 300.0 mg/kg/injection, schedule: Q01DX001 (ip), vehicle: carboxymethylcellulose (CMC)).

In the case of `N#C/C(=C\c1cccc2ccccc12)c1ccccc1`, the T/C (endpoint: mean survival time, dose: 25.0 mg/kg/injection, schedule: Q04DX002 (ip), vehicle: Klucel (hydroxypropylcellulose) (HPC)) was 92 % of control; the T/C (endpoint: mean survival time, dose: 50.0 mg/kg/injection, schedule: Q04DX002 (ip), vehicle: Klucel (hydroxypropylcellulose) (HPC)) is 98 % of control; the T/C (endpoint: mean survival time, dose: 100.0 mg/kg/injection, schedule: Q01DX009 (ip), vehicle: Klucel (hydroxypropylcellulose) (HPC)) is 95 % of control; the T/C under setting [1] is 95 % of control; the T/C (endpoint: mean survival time, dose: 200.0 mg/kg/injection, schedule: Q01DX009 (ip), vehicle: Klucel (hydroxypropylcellulose) (HPC)) is 93 % of control; the T/C (endpoint: mean survival time, dose: 400.0 mg/kg/injection, schedule: Q01DX009 (ip), vehicle: Klucel (hydroxypropylcellulose) (HPC)) is 100 % of control.

As to `CCCCCCCCP(=O)(CCCC)CCCC`, the T/C was 96 % of control under setting [2] and 107 % of control under setting [3].

Take `CC(C)N(SSN(C(C)C)C(C)C)C(C)C`: the T/C by setting is: under setting [2], 95 % of control; under setting [3], 100 % of control; under setting [4], 89 % of control.

On to `C[C@H]1C(=O)O[C@@H]2CCN3CC=C(COC(=O)[C@](C)(O)[C@@]1(C)O)[C@H]23`, for which the T/C reads like this: (endpoint: mean survival time, dose: 3.13 mg/kg/injection, schedule: Q01DX010 (ip), vehicle: saline) 93 % of control and 94 % of control; (endpoint: mean survival time, dose: 6.25 mg/kg/injection, schedule: Q01DX009 (ip), vehicle: saline) 95 % of control and 104 % of control; (endpoint: mean survival time, dose: 6.25 mg/kg/injection, schedule: Q01DX010 (ip), vehicle: saline) 96 % of control and 87 % of control; (endpoint: mean survival time, dose: 12.5 mg/kg/injection, schedule: Q01DX009 (ip), vehicle: saline) 92 % of control and 104 % of control; (endpoint: mean survival time, dose: 12.5 mg/kg/injection, schedule: Q01DX010 (ip), vehicle: saline) 92 % of control and 93 % of control; (endpoint: mean survival time, dose: 17.6 mg/kg/injection, schedule: Q01DX Z (ip), vehicle: methylcellulose (MC)) 98 % of control. The T/C runs as follows: (endpoint: mean survival time, dose: 25.0 mg/kg/injection, schedule: Q01DX009 (ip), vehicle: saline) 103 % of control and 104 % of control; (endpoint: mean survival time, dose: 25.0 mg/kg/injection, schedule: Q01DX010 (ip), vehicle: saline) 92 % of control and 94 % of control; (endpoint: mean survival time, dose: 26.8 mg/kg/injection, schedule: Q01DX Z (ip), vehicle: methylcellulose (MC)) 101 % of control; (endpoint: mean survival time, dose: 40.0 mg/kg/injection, schedule: Q01DX Z (ip), vehicle: methylcellulose (MC)) 101 % of control; (endpoint: mean survival time, dose: 50.0 mg/kg/injection, schedule: Q01DX009 (ip), vehicle: saline) 105 % of control and 121 % of control; (endpoint: mean survival time, dose: 60.0 mg/kg/injection, schedule: Q01DX Z (ip), vehicle: methylcellulose (MC)) 95 % of control. The T/C reads like this: (endpoint: mean survival time, dose: 90.0 mg/kg/injection, schedule: Q01DX Z (ip), vehicle: methylcellulose (MC)) 106 % of control; (endpoint: mean survival time, dose: 135.0 mg/kg/injection, schedule: Q01DX Z (ip), vehicle: methylcellulose (MC)) 111 % of control and 113 % of control; (endpoint: mean survival time, dose: 193.0 mg/kg/injection, schedule: Q01DX Z (ip), vehicle: methylcellulose (MC)) 108 % of control; (endpoint: median survival time, dose: 6.25 mg/kg/injection, schedule: Q01DX009 (ip), vehicle: saline) 95 % of control and 100 % of control; (endpoint: median survival time, dose: 12.5 mg/kg/injection, schedule: Q01DX009 (ip), vehicle: saline) 100 % of control; (endpoint: median survival time, dose: 25.0 mg/kg/injection, schedule: Q01DX009 (ip), vehicle: saline) 100 % of control. Under “endpoint: median survival time, dose: 50.0 mg/kg/injection, schedule: Q01DX009 (ip), vehicle: saline”, the T/C is 100 % of control and 110 % of control.

With `OC(C(F)(F)F)C(F)(F)Cl` (centres undefined), for the setting “endpoint: mean survival time, dose: 100.0 mg/kg/injection, schedule: Q01DX001 (ip), vehicle: saline”, the T/C is 104 % of control.

For the compound `CCOC(=O)/C(O)=C\c1n[n+]([O-])ccc1Cl`, the T/C is 104 % of control under setting [1], 112 % of control under setting [5] and 93 % of control under setting [6].

For the compound `CCOc1ccccc1/C=N\NC(=O)CCCC(=O)N/N=C/c1ccccc1OCC`, the T/C (endpoint: mean survival time, dose: 400.0 mg/kg/injection, schedule: Q01DX001 (ip), vehicle: saline) is 111 % of control.

In the case of `CCN1CC1`, the T/C (endpoint: mean survival time, dose: 6.25 mg/kg/injection, schedule: Q01DX009 (ip), vehicle: Klucel (hydroxypropylcellulose) (HPC)) was 98 % of control; the T/C (endpoint: mean survival time, dose: 6.25 mg/kg/injection, schedule: Q04DX003 (ip), vehicle: Klucel (hydroxypropylcellulose) (HPC)) was 96 % of control; the T/C (endpoint: mean survival time, dose: 12.5 mg/kg/injection, schedule: Q01DX009 (ip), vehicle: Klucel (hydroxypropylcellulose) (HPC)) was 107 % of control; the T/C (endpoint: mean survival time, dose: 12.5 mg/kg/injection, schedule: Q04DX003 (ip), vehicle: Klucel (hydroxypropylcellulose) (HPC)) was 90 % of control; the T/C (endpoint: mean survival time, dose: 25.0 mg/kg/injection, schedule: Q04DX003 (ip), vehicle: Klucel (hydroxypropylcellulose) (HPC)) is 109 % of control.

As to `CCOC(=O)c1ncc(Cl)cc1NC(=O)CC(=O)Nc1cc(Cl)cnc1C(=O)OCC`, the T/C is 97 % of control (endpoint: mean survival time, dose: 100.0 mg/kg/injection, schedule: Q04DX003 (ip), vehicle: saline); 91 % of control (endpoint: mean survival time, dose: 200.0 mg/kg/injection, schedule: Q04DX003 (ip), vehicle: saline); 92 % of control (endpoint: mean survival time, dose: 400.0 mg/kg/injection, schedule: Q04DX003 (ip), vehicle: saline).

For `CCCCCOS(=O)(=O)c1ccc(Cl)c([N+](=O)[O-])c1`, the T/C is, setting by setting: (endpoint: mean survival time, dose: 12.5 mg/kg/injection, schedule: Q01DX009 (ip), vehicle: saline with Tween-80) 93 % of control; (endpoint: mean survival time, dose: 25.0 mg/kg/injection, schedule: Q01DX009 (ip), vehicle: saline with Tween-80) 87 % of control; under setting [7], 95 % of control; (endpoint: mean survival time, dose: 50.0 mg/kg/injection, schedule: Q01DX009 (ip), vehicle: saline with Tween-80) 98 % of control; (endpoint: mean survival time, dose: 50.0 mg/kg/injection, schedule: Q04DX003 (ip), vehicle: saline with Tween-80) 90 % of control.

As for `O=C(C(O)C(O)C(O)C(O)CO)N1CCC(c2ccccc2)(c2ccccc2)CC1` (centres undefined), the T/C is, setting by setting: (endpoint: mean survival time, dose: 100.0 mg/kg/injection, schedule: Q01DX003 (ip), vehicle: saline) 91 % of control; (endpoint: mean survival time, dose: 200.0 mg/kg/injection, schedule: Q01DX003 (ip), vehicle: saline) 94 % of control; (endpoint: mean survival time, dose: 400.0 mg/kg/injection, schedule: Q01DX003 (ip), vehicle: saline) 87 % of control.

For the compound `c1ccc(N/N=C(\c2ccccc2)c2cccs2)cc1`, the T/C runs as follows: (endpoint: mean survival time, dose: 100.0 mg/kg/injection, schedule: Q01DX009 (ip), vehicle: saline with Tween-80) 97 % of control; under setting [2], 98 % of control; (endpoint: mean survival time, dose: 200.0 mg/kg/injection, schedule: Q01DX009 (ip), vehicle: saline with Tween-80) 97 % of control; under setting [3], 104 % of control; (endpoint: mean survival time, dose: 400.0 mg/kg/injection, schedule: Q01DX009 (ip), vehicle: saline with Tween-80) 91 % of control; under setting [4], 98 % of control.

On to `CCOC(=O)Nc1ccc(Cl)cc1`, for which the T/C runs as follows: under setting [1], 89 % of control; under setting [5], 108 % of control; under setting [6], 108 % of control.

Consider `CS(=O)(=O)OCCN(CCOS(C)(=O)=O)c1ccc(C=Nc2ccc(C(=O)O)c(O)c2)cc1`, for which the T/C (endpoint: mean survival time, dose: 6.25 mg/kg/injection, schedule: Q04DX003 (ip), vehicle: saline with Tween-80) is 117 % of control; the T/C (endpoint: mean survival time, dose: 12.0 mg/kg/injection, schedule: Q01DX009 (ip), vehicle: saline with Tween-80) is 168 % of control; the T/C (endpoint: mean survival time, dose: 16.5 mg/kg/injection, schedule: Q04DX003 (ip), vehicle: saline with Tween-80) is 112 % of control; the T/C (endpoint: mean survival time, dose: 18.0 mg/kg/injection, schedule: Q01DX009 (ip), vehicle: saline with Tween-80) was 170 % of control; the T/C under setting [7] is 121 % of control; the T/C (endpoint: mean survival time, dose: 37.5 mg/kg/injection, schedule: Q04DX003 (ip), vehicle: saline with Tween-80) is 113 % of control.
